Assay results reported in US20150105252A1, “SUBSTITUTED PYRAZOLES AS HERBICIDES” (E I DU PONT DE NEMOURS AND COMPANY, priority 2013, published 2015).

Tests used:
Italian ryegrass [1] = assay: Test A postemergence; format: in vivo, Lolium multiflorum
Excerpt: (§1) Seeds of plant species selected from barnyardgrass (Echinochloa crus-galli), kochia (Kochia scoparia), common ragweed (Ambrosia elation), Italian ryegrass (Lolium multiflorum), crabgrass, large (large crabgrass, Digitaria sanguinalis), foxtail, giant (giant foxtail, Setaria faberii), morningglory (Ipomoea spp.), pigweed (redroot pigweed, Amaranthus retroflexus), velvetleaf (Abutilon theophrasti), wheat (Triticum aestivum), and corn (Zea mays) were planted into a blend of loam soil and sand and treated preemergence with a directed soil spray using test chemicals formulated in a non-phytotoxic solvent mixture which included a surfactant.
(§2) At the same time, plants selected from these crop and weed species and also blackgrass (Alopecurus myosuroides), and galium (catchweed bedstraw, Galium aparine) were planted in pots containing the same blend of loam soil and sand and treated with postemergence applications of test chemicals formulated in the same manner. Plants ranged in height from 2 to 10 cm and were in the one- to two-leaf stage for the postemergence treatment. Treated plants and untreated controls were maintained in a greenhouse for approximately 10 days, after which time all treated plants were compared to untreated controls and visually evaluated for injury. Plant response ratings, summarized in Table A, are based on a 0 to 100 scale where 0 is no effect and 100 is complete control. A dash (-) response means no test result.

wheat = assay: Test A postemergence; format: in vivo, Triticum aestivum
In short: (§3)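 Visual injury ratings, 0 = no effect to 100 = complete control, taken about 10 days after treatment against untreated controls. Test chemicals, in a non-phytotoxic surfactant-containing solvent, were sprayed onto soil preemergence or onto one- to two-leaf plants (2–10 cm) postemergence, in loam–sand soil under greenhouse conditions.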

blackgrass = assay: Test A postemergence; format: in vivo, Alopecurus myosuroides
Excerpt: as §1, §2

corn = assay: Test A postemergence; format: in vivo, Zea mays
In short: as §3

common ragweed [2] = assay: Test A postemergence; format: in vivo, Ambrosia elation
Excerpt: as §1, §2

barnyardgrass [3] = assay: Test B flood; format: in vivo, Echinochloa crus-galli; conditions: 250 g ai/ha, visual rating on 0 to 100 scale (0 no effect, 100 complete control), 13 to 15 days
In short: (§4)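 Paddy-water application: seedlings at 2-leaf stage, flood depth 3 cm maintained for the test duration. Evaluation after 13–15 days in the greenhouse by eye relative to controls; 0–100 scale.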

kochia [4] = assay: Test A postemergence; format: in vivo, Kochia scoparia
Excerpt: as §1, §2

ducksalad = assay: Test B flood; format: in vivo, Heteranthera limosa; conditions: 250 g ai/ha, visual rating on 0 to 100 scale (0 no effect, 100 complete control), 13 to 15 days
In short: as §4

pigweed [5] = assay: Test A postemergence; format: in vivo, Amaranthus retroflexus
In short: as §3

foxtail, giant [6] = assay: Test A postemergence; format: in vivo, Setaria faberii
In short: as §3

kochia [7] = assay: Test A preemergence; format: in vivo, Kochia scoparia
Excerpt: as §1, §2

pigweed [8] = assay: Test A preemergence; format: in vivo, Amaranthus retroflexus; conditions: preemergence
In short: as §3

galium = assay: Test A postemergence; format: in vivo, Galium aparine
Excerpt: as §1, §2

foxtail, giant [9] = assay: Test A preemergence; format: in vivo, Setaria faberii; conditions: preemergence
In short: as §3

barnyardgrass [10] = assay: Test A preemergence; format: in vivo, Echinochloa crus-galli; conditions: preemergence
In short: as §3

common ragweed [11] = assay: Test A preemergence; format: in vivo, Ambrosia elation
Excerpt: as §1, §2

Italian ryegrass [12] = assay: Test A preemergence; format: in vivo, Lolium multiflorum
Excerpt: as §1, §2

sedge, umbrella = assay: Test B flood; format: in vivo, Cyperus difformis; conditions: 250 g ai/ha, visual rating on 0 to 100 scale (0 no effect, 100 complete control), 13 to 15 days
In short: as §4

barnyardgrass [13] = assay: Test A postemergence; format: in vivo, Echinochloa crus-galli
In short: as §3

rice = assay: Test B flood; format: in vivo, Oryza sativa; conditions: 250 g ai/ha, visual rating on 0 to 100 scale (0 no effect, 100 complete control), 13 to 15 days
In short: as §4

[14] = Postemergence, 500 g ai/ha, 0 to 100 scale (0 no effect, 100 complete control)
[15] = postemergence, 125 g ai/ha, about 10 days, visual rating on 0 to 100 scale (0 no effect, 100 complete control)
[16] = 125 g ai/ha, visual injury, 0 to 100 scale, approx. 10 days
[17] = 500 g ai/ha, visual injury after approx. 10 days, 0 to 100 scale (0 no effect, 100 complete control)

For `CCc1cc(C(=O)NCC(F)(F)F)nn1Cc1cc(C(F)(F)F)no1` [Compound 123], the “Italian Ryegrass plant response rating” value (Italian ryegrass [1]; [14]) was 30, the “Italian Ryegrass plant response rating” value (Italian ryegrass [1]; [15]) was 10 and the “Wheat plant response rating” value (wheat; [14]) was 10. For the same compound, the “Wheat plant response rating” value (wheat; [15]) was 0, the “Blackgrass plant response rating” value (blackgrass; [14]) was 50 and the “Blackgrass plant response rating” value (blackgrass; [15]) was 10. The “Corn plant response rating” value (corn; [14]) was 60, the “Corn plant response rating” value (corn; [15]) was 20 and the “Common Ragweed plant response rating” value (common ragweed [2]; [14]) was 40. The “Common Ragweed plant response rating” value (common ragweed [2]; [15]) was 10, the “Plant response rating, Barnyardgrass” value (barnyardgrass [3]) was 20 and the “Kochia plant response rating” value (kochia [4]; [14]) was 90. For the same compound, the “Kochia plant response rating” value (kochia [4]; [15]) was 50, the “Plant response rating, Ducksalad” value (ducksalad) was 60 and the “Pigweed plant response rating” value (pigweed [5]; [14]) was 100. For the same compound, the “Pigweed plant response rating” value (pigweed [5]; [15]) was 70, the “Foxtail, Giant plant response rating” value (foxtail, giant [6]; [14]) was 90 and the “Foxtail, Giant plant response rating” value (foxtail, giant [6]; [15]) was 0. The “Kochia plant response rating” value (kochia [7]; [16]) was 10, the “Kochia plant response rating” value (kochia [7]; [17]) was 100 and the “Pigweed plant response rating” value (pigweed [8]; [16]) was 70. The “Pigweed plant response rating” value (pigweed [8]; [17]) was 100, the “Galium plant response rating” value (galium; [14]) was 80 and the “Galium plant response rating” value (galium; [15]) was 10. For the same compound, the “Foxtail, Giant plant response rating” value (foxtail, giant [9]; [16]) was 20, the “Foxtail, Giant plant response rating” value (foxtail, giant [9]; [17]) was 100 and the “Barnyardgrass plant response rating” value (barnyardgrass [10]; [16]) was 0. For the same compound, the “Barnyardgrass plant response rating” value (barnyardgrass [10]; [17]) was 100, the “Common Ragweed plant response rating” value (common ragweed [11]; [16]) was 10 and the “Common Ragweed plant response rating” value (common ragweed [11]; [17]) was 50. For the same compound, the “Italian Ryegrass plant response rating” value (Italian ryegrass [12]; [16]) was 0, the “Italian Ryegrass plant response rating” value (Italian ryegrass [12]; [17]) was 30 and the “Plant response rating, Sedge, Umbrella” value (sedge, umbrella) was 60. For the same compound, the “Barnyardgrass plant response rating” value (barnyardgrass [13]; [14]) was 60, the “Barnyardgrass plant response rating” value (barnyardgrass [13]; [15]) was 0 and the “Plant response rating, Rice” value (rice) was 10.
